How the values were obtained:
Format in all cases: cell-based, murine and human
Settings in all cases: GAL4-PPAR LBD chimera
[1] = target: T1, PPAR-alpha (UniProt Q07869); test: PPAR-alpha transactivation assay (GAL4 chimera, luciferase reporter) in CV-1 cells
T1 sequence (Q07869 1-468): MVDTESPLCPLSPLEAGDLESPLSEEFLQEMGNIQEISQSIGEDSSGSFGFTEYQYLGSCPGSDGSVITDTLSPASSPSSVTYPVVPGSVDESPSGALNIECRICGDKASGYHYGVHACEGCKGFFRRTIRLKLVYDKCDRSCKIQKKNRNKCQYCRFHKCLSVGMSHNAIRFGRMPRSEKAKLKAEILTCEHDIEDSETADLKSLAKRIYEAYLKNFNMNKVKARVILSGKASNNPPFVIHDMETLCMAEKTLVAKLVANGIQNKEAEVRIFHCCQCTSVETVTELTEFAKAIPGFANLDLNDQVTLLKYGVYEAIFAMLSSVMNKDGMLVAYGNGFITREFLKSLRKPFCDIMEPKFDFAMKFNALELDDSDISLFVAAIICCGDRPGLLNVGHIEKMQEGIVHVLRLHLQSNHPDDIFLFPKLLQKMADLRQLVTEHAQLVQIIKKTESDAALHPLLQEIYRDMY
From the text: (§1) Compounds may be screened for functional potency in transient transfection assays in CV-1 cells for their ability to activate the PPAR subtypes (transactivation assay). A previously established chimeric receptor system was utilized to allow comparison of the relative transcriptional activity of the receptor subtypes on the same synthetic response element and to prevent endogenous receptor activation from complicating the interpretation of results. See, for example, Lehmann, J. M.; Moore, L. B.; Smith-Oliver, T. A; Wilkinson, W. O.; Willson, T. M.; Kliewer, S. A., An antidiabetic thiazolidinedione is a high affinity ligand for peroxisome proliferator-activated receptor […], J. Biol. Chem., 1995, 270, 12953-6. The ligand binding domains for murine and human PPAR-alpha, PPAR-gamma, and PPAR-delta are each fused to the yeast transcription factor GAL4 DNA binding domain. CV-1 cells were transiently transfected with expression vectors for the respective PPAR chimera along with a reporter construct containing four or five copies of the GAL4 DNA binding site driving expression of luciferase. After 8-16 h, the cells are replated into multi-well assay plates and the media is exchanged to phenol-red free DME medium supplemented with 5% delipidated calf serum. 4 hours after replating, cells were treated with either compounds or 1% DMSO for 20-24 hours. Luciferase activity was then assayed with Britelite (Perkin Elmer) following the manufacturer's protocol and measured with either the Perkin Elmer Viewlux or Molecular Devices Acquest (see, for example, Kliewer, S. A., et. al. Cell 1995, 83, 813-819). Rosiglitazone is used as a positive control in the PPARγ assay. Wy-14643 and GW7647 are used as positive controls in the PPARα assay. GW501516 is used as the positive control in the PPARδ assay.
(§2) Compounds of Examples 1-141 were assayed to measure their biological activity with respect to their EC50 values for modulating PPAR-alpha, PPAR-gamma, and PPAR-delta as set forth in Table 1.

[2] = target: T2, PPAR-delta (UniProt Q03181); test: PPAR-delta transactivation assay (GAL4 chimera, luciferase reporter) in CV-1 cells
T2 sequence (Q03181 1-441): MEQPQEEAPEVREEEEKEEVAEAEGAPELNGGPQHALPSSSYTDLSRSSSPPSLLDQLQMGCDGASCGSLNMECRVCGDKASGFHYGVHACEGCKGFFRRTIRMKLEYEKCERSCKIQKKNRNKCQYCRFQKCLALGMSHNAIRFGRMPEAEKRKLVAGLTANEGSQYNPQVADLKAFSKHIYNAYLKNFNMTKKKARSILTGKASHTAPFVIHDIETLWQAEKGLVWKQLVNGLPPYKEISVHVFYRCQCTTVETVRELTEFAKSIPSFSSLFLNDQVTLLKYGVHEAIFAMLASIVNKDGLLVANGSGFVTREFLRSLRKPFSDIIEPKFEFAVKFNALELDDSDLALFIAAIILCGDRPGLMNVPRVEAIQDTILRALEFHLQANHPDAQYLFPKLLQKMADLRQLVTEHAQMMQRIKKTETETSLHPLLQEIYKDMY
From the text: as §1, §2

[3] = target: T3, PPAR-gamma (UniProt P37231); test: PPAR-gamma transactivation assay (GAL4 chimera, luciferase reporter) in CV-1 cells
T3 sequence (P37231 1-505): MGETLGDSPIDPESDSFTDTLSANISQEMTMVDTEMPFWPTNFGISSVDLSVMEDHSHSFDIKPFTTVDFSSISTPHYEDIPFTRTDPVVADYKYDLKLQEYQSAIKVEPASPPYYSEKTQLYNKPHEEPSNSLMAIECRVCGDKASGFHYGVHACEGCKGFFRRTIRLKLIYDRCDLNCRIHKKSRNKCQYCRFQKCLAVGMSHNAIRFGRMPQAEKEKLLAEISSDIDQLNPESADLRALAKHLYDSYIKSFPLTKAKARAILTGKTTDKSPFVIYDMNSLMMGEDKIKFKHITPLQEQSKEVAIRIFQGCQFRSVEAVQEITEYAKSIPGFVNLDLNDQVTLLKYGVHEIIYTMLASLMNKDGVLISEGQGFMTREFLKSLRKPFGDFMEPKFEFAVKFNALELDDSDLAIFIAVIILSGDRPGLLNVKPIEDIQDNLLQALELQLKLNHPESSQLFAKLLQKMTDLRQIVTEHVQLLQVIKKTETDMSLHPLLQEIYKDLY
From the text: as §1, §2

| SMILES | EC50 [1] | EC50 [2] | EC50 [3] |
| --- | --- | --- | --- |
| C[C@@H]1CN(c2ccc(C(F)(F)F)c(Cl)c2)C[C@H](C)N1S(=O)(=O)c1cccc2c1CC(C(=O)O)C2 (relative stereo) [Example 82, 4-[4-(3-chloro-4-trifluoromethyl-phenyl)-cis-2,6-dimethyl-piperazine-1-sulfonyl]-indan-2-carboxylic acid] | > 100 µM | < 5 µM | > 100 µM |
| O=C(O)C1Cc2cccc(S(=O)(=O)N3CCN(c4ccc(C(F)(F)F)cn4)CC3)c2C1 (single isomer, unassigned) [Example 11] | 5 to 100 µM | < 5 µM | < 5 µM |
| C[C@@H]1CN(c2ccc(OC(F)(F)F)cc2)C[C@H](C)N1S(=O)(=O)c1cccc2c1CC(C(=O)O)C2 (single isomer, unassigned) [Example 80] | > 100 µM | < 5 µM | > 100 µM |
| CC1CN(S(=O)(=O)c2cccc3c2CC(C(=O)O)C3)C(C)CN1c1ccc(C(F)(F)F)cn1 (single isomer, unassigned) [Example 118, 4-[2S,5S-dimethyl-4-(5-trifluoromethyl-pyridin-2-yl)-piperazine-1-sulfonyl]-indan-2-carboxylic acid] | > 100 µM | < 5 µM | 5 to 100 µM |
| CC1CN(S(=O)(=O)c2cccc3c2CC(C(=O)O)C3)C(C)CN1c1ccc(C(F)(F)F)cn1 (single isomer, unassigned) [Example 119, 4-[2S,5S-dimethyl-4-(5-trifluoromethyl-pyridin-2-yl)-piperazine-1-sulfonyl]-indan-2-carboxylic acid] | > 100 µM | 5 to 100 µM | > 100 µM |
| C[C@@H]1CN(c2ccc(Cl)cc2)C[C@H](C)N1S(=O)(=O)c1cccc2c1CC(C(=O)O)C2 (single isomer, unassigned) [Example 127, 4-(4-(4-chlorophenyl)-cis-2,6-dimethylpiperazin-1-ylsulfonyl)-2,3-dihydro-1H-indene-2-carboxylic acid] | > 100 µM | < 5 µM | > 100 µM |
| C[C@@H]1CN(c2cccc(OC(F)(F)F)c2)C[C@H](C)N1S(=O)(=O)c1cccc2c1CC(C(=O)O)C2 (single isomer, unassigned) [Example 129, 4-[cis-2,6-dimethyl-4-(3-trifluoromethoxyphenyl)piperazin-1-ylsulfonyl]-2,3-dihydro-1H-indene-2-carboxylic acid] | > 100 µM | < 5 µM | > 100 µM |
| C[C@@H]1CN(Cc2ccc(OC(F)(F)F)cc2)C[C@H](C)N1S(=O)(=O)c1cccc2c1CC(C(=O)O)C2 (single isomer, unassigned) [Example 140] | > 100 µM | < 5 µM | 5 to 100 µM |
| C[C@@H]1CN(Cc2ccc(OC(F)(F)F)cc2)C[C@H](C)N1S(=O)(=O)c1cccc2c1CC(C(=O)O)C2 (single isomer, unassigned) [Example 141] | > 100 µM | 5 to 100 µM | > 100 µM |
| C[C@@H]1[C@H](C)N(c2ccc(C(F)(F)F)cn2)CCN1S(=O)(=O)c1ccc2c(c1)C(C(=O)O)CC2 (stereo in doubt) [Example 86, 6-[2,3-Dimethyl-4-(5-trifluoromethyl-pyridin-2-yl)-piperazine-1-sulfonyl]-indan-1-carboxylic acid] | < 5 µM | < 5 µM | < 5 µM |
| C[C@@H]1[C@H](C)N(c2ccc(C(F)(F)F)cn2)CCN1S(=O)(=O)c1ccc2scc(CC(=O)O)c2c1 (stereo in doubt) [Example 87, {5-[2,3-Dimethyl-4-(5-trifluoromethyl-pyridin-2-yl)-piperazine-1-sulfonyl]-benzo[b]thiophen-3-yl}-acetic acid] | 5 to 100 µM | < 5 µM | < 5 µM |

The remaining lines, values ahead:

| EC50 [1] | EC50 [2] | EC50 [3] | SMILES |
| --- | --- | --- | --- |
| 5 to 100 µM | < 5 µM | 5 to 100 µM | C[C@@H]1CN(c2ccc(C(F)(F)F)cn2)C[C@H](C)N1S(=O)(=O)c1ccc2c(c1)C(C(=O)O)CC2 (single isomer, unassigned) [Example 75, 6-[cis-2,6-dimethyl-4-(5-trifluoromethylpyridin-2-yl)-piperazine-1-sulfonyl]-indan-1-carboxylic acid] |
| > 100 µM | < 5 µM | > 100 µM | C[C@@H]1CN(c2ccc(C(F)(F)F)cn2)C[C@H](C)N1S(=O)(=O)c1ccc2c(c1)C(C(=O)O)CC2 (single isomer, unassigned) [Example 76, 6-[cis-2,6-dimethyl-4-(5-trifluoromethylpyridin-2-yl)-piperazine-1-sulfonyl]-indan-1-carboxylic acid] |
| > 100 µM | 5 to 100 µM | > 100 µM | C[C@@H]1CN(c2ccc(Cl)cc2)C[C@H](C)N1S(=O)(=O)c1cccc2c1CC(C(=O)O)C2 (single isomer, unassigned) [Example 128, 4-(4-(4-chlorophenyl)-cis-2,6-dimethylpiperazin-1-ylsulfonyl)-2,3-dihydro-1H-indene-2-carboxylic acid] |
| > 100 µM | 5 to 100 µM | > 100 µM | C[C@@H]1CN(c2cccc(OC(F)(F)F)c2)C[C@H](C)N1S(=O)(=O)c1cccc2c1CC(C(=O)O)C2 (single isomer, unassigned) [Example 130, 4-[cis-2,6-dimethyl-4-(3-trifluoromethoxyphenyl)piperazin-1-ylsulfonyl]-2,3-dihydro-1H-indene-2-carboxylic acid] |
| > 100 µM | < 5 µM | > 100 µM | C[C@@H]1CN(c2ccc(C(F)(F)F)c(Cl)c2)C[C@H](C)N1S(=O)(=O)c1cccc2c1CC(C(=O)O)C2 (single isomer, unassigned) [Example 138, 4-(4-(3-chloro-4-(trifluoromethyl)phenyl)-cis-2,6-dimethylpiperazin-1-ylsulfonyl)-2,3-dihydro-1H-indene-2-carboxylic acid] |
| > 100 µM | 5 to 100 µM | > 100 µM | C[C@@H]1CN(c2ccc(C(F)(F)F)c(Cl)c2)C[C@H](C)N1S(=O)(=O)c1cccc2c1CC(C(=O)O)C2 (single isomer, unassigned) [Example 139, 4-(4-(3-chloro-4-(trifluoromethyl)phenyl)-cis-2,6-dimethylpiperazin-1-ylsulfonyl)-2,3-dihydro-1H-indene-2-carboxylic acid] |
| 5 to 100 µM | 5 to 100 µM | 5 to 100 µM | O=C(O)CC1Cc2ccc(S(=O)(=O)N3CCN(c4ccc(C(F)(F)F)cc4)CC3)cc2C1 (stereo not drawn) [Example 1, {5-[4-(4-trifluoromethylphenyl)-piperazine-1-sulfonyl]-indan-2-yl}-acetic acid] |
